Assay [1] addresses T1, Peroxisome proliferator-activated receptor alpha (Homo sapiens, UniProt Q07869).
T1 sequence (Q07869 whole entry): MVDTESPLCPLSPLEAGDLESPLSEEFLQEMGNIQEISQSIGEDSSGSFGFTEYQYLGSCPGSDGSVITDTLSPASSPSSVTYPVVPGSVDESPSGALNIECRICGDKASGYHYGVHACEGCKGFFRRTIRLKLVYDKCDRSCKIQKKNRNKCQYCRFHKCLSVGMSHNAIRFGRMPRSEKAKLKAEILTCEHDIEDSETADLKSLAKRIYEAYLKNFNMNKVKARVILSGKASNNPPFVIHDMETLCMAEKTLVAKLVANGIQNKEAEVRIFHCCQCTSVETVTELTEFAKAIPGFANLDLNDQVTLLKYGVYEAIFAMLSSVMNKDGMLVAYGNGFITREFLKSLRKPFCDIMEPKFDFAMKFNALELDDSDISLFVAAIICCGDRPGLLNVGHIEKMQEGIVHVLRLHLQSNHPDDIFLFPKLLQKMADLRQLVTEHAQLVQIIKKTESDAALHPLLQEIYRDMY
Kind of assay: In vitro inhibition of human Peroxisome proliferator activated receptor alpha.

The target of assay [2] is T2, Peroxisome proliferator-activated receptor alpha (Mus musculus, UniProt P23204).
T2 sequence (P23204 whole entry): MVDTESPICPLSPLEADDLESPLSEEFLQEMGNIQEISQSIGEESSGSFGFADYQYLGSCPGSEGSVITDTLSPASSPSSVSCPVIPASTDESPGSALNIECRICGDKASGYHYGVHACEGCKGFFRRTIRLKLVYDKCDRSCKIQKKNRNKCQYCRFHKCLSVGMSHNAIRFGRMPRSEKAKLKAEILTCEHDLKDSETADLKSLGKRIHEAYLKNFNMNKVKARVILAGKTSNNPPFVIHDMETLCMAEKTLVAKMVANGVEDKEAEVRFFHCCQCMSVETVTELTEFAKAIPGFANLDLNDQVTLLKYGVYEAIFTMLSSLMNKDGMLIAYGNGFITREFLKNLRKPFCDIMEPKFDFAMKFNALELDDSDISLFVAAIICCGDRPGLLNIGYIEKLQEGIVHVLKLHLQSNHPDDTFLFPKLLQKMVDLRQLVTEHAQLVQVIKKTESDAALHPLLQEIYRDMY
Put plainly: In vitro inhibition of mouse Peroxisome proliferator activated receptor alpha.

Assay [3] concerns the target T2, Peroxisome proliferator-activated receptor alpha. Put plainly: Transactivation activity for mouse Peroxisome proliferator activated receptor alpha.
Assay [4] concerns the target T1, Peroxisome proliferator-activated receptor alpha. Kind of assay: Transactivation activity for human Peroxisome proliferator activated receptor alpha.
In a further assay the test system is Mus musculus. Put plainly: Effect on level of triglyceride at a dose of 3 mg/kg in mice treated for 7 days. The format is functional.

This note sets out measurements from ChEMBL document CHEMBL1138731, “Conversion of human-selective PPARalpha agonists to human/mouse dual agonists: a molecular modeling analysis” (Bioorg Med Chem Lett, 2004).

The IC50 is the concentration needed to halve the response being measured. Usually EC50 stands for the concentration giving half of the maximal effect. The low end stands for a more potent agent, the high end for a less potent agent. Take `Cc1oc(-c2ccccc2)nc1CCOc1ccc(CC(C)(Oc2ccc(C(C)(C)C)cc2)C(=O)O)cc1` (centres undefined): the figures for the IC50 in assay [1] and in assay [2] were 149 nM and 515 nM, respectively. In addition, the EC50 in assay [3] was found to be 211 nM; in assay [4], 11 nM.

In assay [2], `Cc1oc(-c2cccc(-c3ccccc3)c2)nc1CCOc1ccc(CC(C)(Oc2ccccc2)C(=O)O)cc1` (centres undefined) had an IC50 of 404 nM. In assay [3], this molecule displayed a half-maximal effective concentration (EC50) of 173 nM.

The molecule `Cc1oc(-c2ccccc2)nc1CCOc1ccc(CC(C)(Oc2ccccc2)C(=O)O)cc1` (centres undefined) gave a Triglyceride level in the assay on Mus musculus of about 56%.

Consider `Cc1oc(-c2cccc(-c3ccccc3)c2)nc1CCOc1ccc(CC(C)(Oc2ccc(C(C)(C)C)cc2)C(=O)O)cc1` (centres undefined), for which the Triglyceride level in the assay on Mus musculus is about 39%. For the same molecule, the IC50 turned out to be 133 nM in assay [1] and 146 nM in assay [2]. For the same molecule, the figures for the EC50 in assay [3] and in assay [4] were 91 nM and 49 nM, respectively.

As to `Cc1ccc(OC(C)(Cc2ccc(OCCc3nc(-c4ccc(-c5ccccc5)cc4)oc3C)cc2)C(=O)O)cc1` (centres undefined), the IC50 turned out to be 375 nM in assay [1] and 1460 nM in assay [2]. Besides, the EC50 amounted to 1040 nM in assay [3] and 39 nM in assay [4].

`Cc1oc(-c2ccc(-c3ccccc3)cc2)nc1CCOc1ccc(CC(C)(Oc2ccc(C(C)(C)C)cc2)C(=O)O)cc1` (centres undefined) registered an IC50 in assay [2] of 700 nM. Also, the EC50 in assay [3] came out at 1170 nM; in assay [4], 260 nM.

Consider `Cc1oc(-c2ccc(-c3ccccc3)cc2)nc1CCOc1ccc(CC(C)(Oc2ccccc2)C(=O)O)cc1` (centres undefined), for which, in assay [2], half-maximal inhibition (IC50) required 7020 nM. Moreover, the EC50 in assay [3] came out at 2340 nM.

Turning to `Cc1ccc(OC(C)(Cc2ccc(OCCc3nc(-c4ccccc4)oc3C)cc2)C(=O)O)cc1` (centres undefined), the IC50 turned out to be 64 nM in assay [1] and 1400 nM in assay [2]. Further, the EC50 is 585 nM in assay [3] and 7 nM in assay [4].

For the molecule `Cc1ccc(OC(C)(Cc2ccc(OCCc3nc(-c4cccc(-c5ccccc5)c4)oc3C)cc2)C(=O)O)cc1` (centres undefined), the IC50 in assay [1] was found to be 306 nM; in assay [2], 530 nM. The values for the concentration giving a half-maximal response (EC50) in assay [3] and in assay [4] were 151 nM and 23 nM, respectively.
